Data reported in US6087493A, “Porphyrin compounds as telomerase inhibitors” (Regents of the University of Texas System, priority 1998, dated 2000).
Read-outs that look alike come from different tables or passages of the source.

Columns and labels:
[1] = 25 μM; Table 9
human telomerase = human telomerase (Homo sapiens, UniProt O14746); assay: Telomerase inhibition, primer extension assay in HeLa cell extract; type: biochemical; settings: for % Inhibition of telomerase: 25 µM; for inhibition at 25 µM: read-out: % Inhibition of telomerase
human telomerase, sequence (O14746 whole entry): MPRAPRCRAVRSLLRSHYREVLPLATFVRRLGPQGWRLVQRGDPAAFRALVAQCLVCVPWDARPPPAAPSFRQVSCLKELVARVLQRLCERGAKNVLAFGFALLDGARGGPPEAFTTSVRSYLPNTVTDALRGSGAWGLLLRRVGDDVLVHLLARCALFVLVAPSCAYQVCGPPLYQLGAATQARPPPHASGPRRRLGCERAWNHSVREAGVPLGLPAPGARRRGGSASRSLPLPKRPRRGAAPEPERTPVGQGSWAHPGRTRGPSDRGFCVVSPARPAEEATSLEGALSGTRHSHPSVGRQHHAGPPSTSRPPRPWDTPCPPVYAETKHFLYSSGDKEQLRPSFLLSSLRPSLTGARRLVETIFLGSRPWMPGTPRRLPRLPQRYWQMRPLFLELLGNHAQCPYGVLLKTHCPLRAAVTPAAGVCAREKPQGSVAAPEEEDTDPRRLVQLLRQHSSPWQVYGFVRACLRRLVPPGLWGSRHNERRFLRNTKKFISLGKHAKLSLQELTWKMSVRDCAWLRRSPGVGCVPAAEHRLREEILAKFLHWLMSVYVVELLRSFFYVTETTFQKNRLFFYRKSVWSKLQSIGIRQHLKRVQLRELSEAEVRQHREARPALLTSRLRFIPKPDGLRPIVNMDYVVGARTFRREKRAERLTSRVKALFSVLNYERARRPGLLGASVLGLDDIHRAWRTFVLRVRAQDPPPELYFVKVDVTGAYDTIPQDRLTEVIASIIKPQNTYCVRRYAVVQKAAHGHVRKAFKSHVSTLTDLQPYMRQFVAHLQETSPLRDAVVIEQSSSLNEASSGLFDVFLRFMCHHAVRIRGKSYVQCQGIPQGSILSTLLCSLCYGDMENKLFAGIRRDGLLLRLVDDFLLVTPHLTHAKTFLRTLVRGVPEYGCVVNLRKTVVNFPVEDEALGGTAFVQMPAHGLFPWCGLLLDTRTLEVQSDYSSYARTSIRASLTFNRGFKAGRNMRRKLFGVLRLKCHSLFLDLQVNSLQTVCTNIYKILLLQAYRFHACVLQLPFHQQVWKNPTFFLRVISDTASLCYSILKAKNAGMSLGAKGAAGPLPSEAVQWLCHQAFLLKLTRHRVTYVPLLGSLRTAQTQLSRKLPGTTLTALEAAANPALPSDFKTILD

HS578t = type: cell-based, human; settings: hs578t cells
Procedure: (§1) Cytotoxicity of the compounds to human breast cancer cells in vitro was assessed using a panel of cell lines representing estrogen receptor-positive (BT20, MCF-7m), and a pair of estrogen receptor-negative, transformed breast (11S578t) and normal breast (HS578Bst) cells.
(§2) Thy: tritiated […] assay (n = 3 ± SEM)

MCF-7M [2] = type: cell-based, human; settings: mcf-7m cells
Procedure: as §1, §2

Raji = assay: Cytotoxicity (MTT) Raji; type: cell-based, human; settings: raji cells
Procedure: (§3) The cells were cultured in the presence of the porphyrins incubator for 4-7 days and then treated with 3-(4,5-dimethylthiazol-2-yl)-2,5-diphenyl-tetrazolium bromide (MTT). Formazan concentration was quantitated by absorbance at 570 nm.

MCF-7M [3] = type: cell-based, human; settings: mcf-7m cells; remark: listed apart in the source
Procedure: as §1

NHLF = assay: Cytotoxicity (MTT) NHLF normal lung fibroblasts; type: cell-based; settings: human, nhlf cells
Procedure: as §3
All porphyrins were obtained from Midcentury, Posen, Ill. The experimental work with porphyrins was performed under minimum exposure to light. All human tumor cell lines and normal human breast cells Hs578Bst were purchased from the American Type Culture Collection. Normal human lung fibroblasts NHLF were obtained from Clonetics Corporation. The cell lines were grown according to the suppliers' instructions.

MDA-231 = assay: Cytotoxicity (MTT) MDA-231; type: cell-based, human; settings: mda-231 cells
Procedure: as §3

PC3 = assay: Cytotoxicity (MTT) PC3; type: cell-based, human; settings: pc3 cells
Procedure: as §3

LNCap = assay: Cytotoxicity (MTT) LNCap; type: cell-based, human; settings: lncap cells
Procedure: as §3

BT-20 = assay: Cytotoxicity (MTT) BT-20; type: cell-based, human; settings: bt-20 cells
Procedure: as §3

[4] = test system: MCF7 human breast carcinoma cells (telomerase activity); assay: Telomerase activity in intact MCF7 cells cultured with porphyrin; type: cell-based
Procedure: To determine the long-term effects of TMPyP4 on whole cells, MCF7 breast carcinoma cells were cultured in the continuous presence of 1, 10, and 100 μM TMPyP4. The porphyrin solution was freshly added to the medium from the concentrated stock at each passage of the cells (every 3-4 days). On days 4, 8, and 15, the cells were lysed and the telomerase activity was measured in the extracts.
Breast cancer cells MCF-7m, BT20, HS578t and normal HS578Bst cells were grown in culture in T75 flasks (10^6 cells/flask). […] The cells were harvested and freeze-thawed and the extracts used to measure telomerase activity using the Dynabeads method.

Daudi = assay: cells; type: cell-based, human; settings: daudi cells
Procedure: as §3

MCF-7 = assay: Cytotoxicity (MTT) MCF-7; type: cell-based, human; settings: mcf-7 cells
Procedure: as §3

HeLa = assay: cells; type: cell-based, human; settings: hela cells
[5] = test system: telomere length in MCF7 cells; assay: Telomere length analysis in MCF7 cells; type: cell-based, human
Procedure: DNA was extracted from a minimum of 5×10^6 cells by SDS, proteinase K treatment, then purified and quantitated as previously described (Strahl and Blackburn, 1991). Approximately 1 μg of total DNA was digested with Mse I; the digested DNA was size fractionated by agarose gel electrophoresis and Southern blotted. The blots were hybridized with a ^32 P-labeled 0.5 kb PCR™ DNA fragments composed of the telomere repeat d(TTAGGG), which served as a probe for the telomeres. The hybridized probe was detected by autoradiography and each lane on the film was analyzed by phosphoimage analysis (Molecular Dynamics).
Telomeres shorten at an average rate of 65-100 base pairs per cell division (Counter et al., 1992). To observe a significant effect of an agent on telomere length, e.g., shortening the telomeres by >1 kilobase in MCF7 cells (5.7 kbases), a minimum of […] population doubling times will be required.

DU145 = assay: Cytotoxicity (MTT) DU145; type: cell-based, human; settings: du145 cells
Procedure: as §3

sea urchin embryos = settings: in vivo
Procedure: Lytechinus pictus sea urchins were purchased from Marinus Inc. (Long Beach, Calif.) and maintained at 15° C. in refrigerated aquaria containing Instant Ocean synthetic sea water, following a described procedure [Vafa, 1996 #300]. For polyspermic fertilization, 0.01 vol freshly prepared stock sperm suspension (25 ml ASW containing 2 ml undiluted semen) was added to the eggs suspended for 10 min at 1% concentration in ASW adjusted to pH 9.0 with NH4 OH and stirred at 60 rpm with motor-driven Teflon paddles. Ten min after insemination, the fertilized eggs were allowed to settle, and the supernatant ASW containing sperm was aspirated and replaced with fresh ASW. The embryos were cultured at 18° C. Twenty min after fertilization TMPyP4 or TMPyP4.Pt^II (100 μM final concentration) was added from a concentrated stock in DMSO to 1% embryo suspensions. Equivalent amounts of DMSO (final 0.1%) were added to control egg suspensions. At measured times after insemination, the embryos were pelleted by centrifugation and resuspended in Carnoy's fixative (ethanol:acetic acid, 3:1) for at least 1 hr. After fixation the embryos were pelleted and resuspended successively in: (1) ethanol:acetic acid, 1:1 for 5-15 min: (2) 45% acetic acid for 5-15 min; (3) room temperature 1 N HCl for 1-2 min: (4) 60° C. 1 N HCl for 7-8 min; (5) room temperature 1 N HCl for 1-2 min; (6) Schiffs reagent for 90-120 min; and (7) 45% acetic acid before affixing the embryos to microscope slides. Embryo samples were placed on microscope slides, covered with coverslips, and frozen on a bed of dry ice. After at least 30 min, the coverslips were popped off using a razor blade and the slides were immediately plunged into Coplin jars containing 95% ethanol for 5-10 min. The slides were then transferred to Coplin jars containing 100% ethanol for 3-5 min. After removing the slides and allowing them to air dry, the embryos were mounted with one drop Permount (Fisher) under a coverglass.
The inventors examined whether treatment of the embryos with G-quadroplex interactive agents can cause observable chromosomal abnormalities. A time course of the embryo development was followed in the presence of 10 μM and 100 μM concentrations of TMPyP4 or TMPyP4.Pt^II.

[6] = Table 15, concentration fixed at 25 μM

With `O=[N+]([O-])c1cccc(-c2c3nc(cc4ccc([nH]4)c(-c4cccc([N+](=O)[O-])c4)c4nc(cc5ccc2[nH]5)C=C4)C=C3)c1` [Compound D16] the “% insoluble remark (solubility)” value [1] was “insoluble”.

In the case of `O=[N+]([O-])c1cc(-c2c3nc(c(-c4ccc(Cl)c([N+](=O)[O-])c4)c4ccc([nH]4)c(-c4ccc(Cl)c([N+](=O)[O-])c4)c4nc(c(-c5ccc(Cl)c([N+](=O)[O-])c5)c5ccc2[nH]5)C=C4)C=C3)ccc1Cl` [Compound D13, 5,10,15,20-tetra-(4-chloro-3-nitrophenyl)porphine], the “% insoluble remark (solubility)” value [1] is reported as “insoluble”.

For `C[n+]1ccc(-c2c3nc(c(-c4cc[n+](C)cc4)c4ccc([n-]4)c(-c4cc[n+](C)cc4)c4nc(c(-c5cc[n+](C)cc5)c5ccc2[n-]5)C=C4)C=C3)cc1.[Cl-].[Cl-].[Cl-].[Cl-].[Pt+2]` [TMPyP4 PtII, Platinum(II)tetra(N-methyl-4-pyridyl)porphyrin chloride], the “% Inhibition of telomerase” value (human telomerase) was 69%, the IC50 (human telomerase; read-out: Telomerase Inhibition) was 15 µM and the IC50 (HS578t) was 214 ± 49 µM. It also gave an IC50 (MCF-7M [2]) of 434 ± 386 µM, an IC50 (Raji) of 64.6 µM and an IC50 (MCF-7M [3]) of 74.8 ± 31.9 µM. The CC50 (NHLF) was 11.6 µM, the IC50 (MDA-231) was over 100 µM and the IC50 (PC3) was over 200 µM. For the same compound, the IC50 (LNCap) was 42.2 µM, the IC50 (BT-20) was 262 µM and the “telomerase activity in intact MCF7 cells” value [4] was “less potent inhibitor than TMPyP4”. For the same compound, the IC50 (Daudi) was 104 µM, the IC50 (MCF-7) was over 100 µM and the IC50 (HeLa) was 136 ± 34.8 µM. For the same compound, the “effect on telomere shortening” value [5] was “No detectable effects on telomere shortening”, the IC50 (DU145) was 1360 µM and the “cell number and morphology of embryos” value (sea urchin embryos) was “fewer cells, many very misshapen and variable in size relative to the controls”. For the same compound, the “condensed chromosome length / chromosomal effects” value (sea urchin embryos) was “Qualitatively similar results”, the “differences from controls in embryos” value (sea urchin embryos) was “no definitive differences were seen” and the “first signs of ciliary motility” value (sea urchin embryos) was 9 h. For the same compound, the toxicity to embryos (sea urchin embryos) was “generally non-toxic to the embryos”.

With `COC(=O)CCC1=C(CC(=O)OC)c2cc3[nH]c(cc4nc(cc5[nH]c(cc1n2)c(CCC(=O)OC)c5CC(=O)OC)C(CC(=O)OC)=C4CCC(=O)OC)c(CCC(=O)OC)c3CC(=O)OC` [Compound H22] the inhibition at 25 µM (human telomerase; [6]) was 19%.

`COc1ccc(-c2c3nc(c(-c4ccc(OC)c(O)c4)c4ccc([nH]4)c(-c4ccc(OC)c(O)c4)c4nc(c(-c5ccc(OC)c(O)c5)c5ccc2[nH]5)C=C4)C=C3)cc1O` [Compound D17, 5,10,15,20-tetra-(4-methoxy-3-hydroxyphenyl)porphine] gave an inhibition at 25 µM (human telomerase; 25 μM, Table 9) of 50%.

Compound `COC(=O)CCC1=C(C)c2cc3[nH]c(cc4nc(cc5[nH]c(cc1n2)c(CCC(=O)OC)c5C)C(C)=C4C(C)O)c(C)c3C(C)O` (stereo not shown) [Compound H11] has an inhibition at 25 µM (human telomerase; [6]) of 20%.

For `CCC1=C(C)c2cc3[nH]c(cc4nc(cc5[nH]c(cc1n2)c(C)c5CC)C(C)=C4CC)c(CC)c3C` [Compound H2], the inhibition at 25 µM (human telomerase; [6]) was 0%.

For `C[n+]1ccc(-c2c3nc(c(-c4cc[n+](C)cc4)c4ccc([n-]4)c(-c4cc[n+](C)cc4)c4nc(c(-c5cc[n+](C)cc5)c5ccc2[n-]5)C=C4)C=C3)cc1.[Cl-].[Cl-].[Cl-].[Cl-].[Zn+2]` [TMPyP4 ZnII], the “telomerase inhibition in words” value (human telomerase) was “better inhibitors” and the “% Inhibition of telomerase” value (human telomerase) was 88%.

`Nc1cccc(-c2c3nc(c(-c4cccc(N)c4)c4ccc([nH]4)c(-c4cccc(N)c4)c4nc(c(-c5cccc(N)c5)c5ccc2[nH]5)C=C4)C=C3)c1` [Compound B2, Tetra-(3-aminophenyl)porphyrin] gave an inhibition at 25 µM (human telomerase; 25 μM, Table 13) of 15%.

For `Nc1ccc(-c2c3nc(c(-c4ccc(N)cc4)c4ccc([nH]4)c(-c4ccc(N)cc4)c4nc(c(-c5ccc(N)cc5)c5ccc2[nH]5)C=C4)C=C3)cc1` [Compound B1, Tetra-(4-aminophenyl)porphyrin], the inhibition at 25 µM (human telomerase; 25 μM, Table 13) was 50%.

Compound `C[n+]1cccc(-c2c3nc(c(-c4ccccc4)c4ccc([nH]4)c(-c4ccccc4)c4nc(c(-c5ccccc5)c5ccc2[nH]5)C=C4)C=C3)c1` [Compound B25] has an inhibition at 25 µM (human telomerase; 25 μM, Table 7) of 35%.

Work on `CC(=O)C1=C(C)c2cc3[nH]c(cc4nc(cc5[nH]c(cc1n2)c(C)c5C(C)=O)C(C)=C4CCC(=O)O)c(C)c3CCC(=O)O` [Compound H29] yielded an inhibition at 25 µM (human telomerase; [6]) of 0%.

With `COC(=O)CCC1=C(C)c2cc3[nH]c(cc4nc(cc5[nH]c(cc1n2)c(C)c5CCC(=O)OC)C(C)=C4C)c(C)c3C` [Compound H30] the inhibition at 25 µM (human telomerase; [6]) was 23%.

Compound `CCOC(=O)CCC1=C(C)c2cc3[nH]c(cc4nc(cc5[nH]c(cc1n2)c(CC)c5C)C(CC)=C4C)c(C)c3C` [Compound H28] has an inhibition at 25 µM (human telomerase; [6]) of 0%.

Work on `C[n+]1ccc(-c2c3nc(c(-c4cc[n+](C)cc4)c4ccc([nH]4)c(-c4cc[n+](C)cc4)c4nc(c(-c5ccccc5)c5ccc2[nH]5)C=C4)C=C3)cc1` [Compound B6, Tri(N-methyl-4-pyridyl)phenylporphyrin chloride] yielded an inhibition at 25 µM (human telomerase; 25 μM, Table 7) of 15%.
